Experimental findings from patent US8841325B2, “Immunomodulatory compounds for the restoration of vitamin D sensitivity in vitamin D resistant tumor cells” (Celgene Corporation, priority 2009, dated 2014) are described below.

What all share (assay type): cell-based
In series [1] the test system is HBL-100 cells. Put plainly: BCL-2 expression by immunoblotting, HBL-100. The conditions noted are these: 1 μM lenalidomide and 100 nM 1,25-D3 alone or in combination, 6 days, FIG. 15. The procedure:
It has been shown in this paper that BCL-2 inhibition of expression seems to be a key event for the restoration of a sensitive vitamin D sensitive phenotype in MDA-MB-231. […] Cells were also treated with 0.1% DMSO as a control. Whole cells extracts were prepared and analysed by immuoblotting BCL-2 antibody. β-actin was used as a loading control.
More particularly, FIG. 15 illustrates the effects of co-treatment lenalidomide/1, 25-D3 on BCL-2 expression in MCF-7VDR and HBL-100 cells. MCF-7/VDR and HBL-100 cells were treated for up to 6 days with 1 μM lenalidomide and 100 nM 1, 25-D3 alone or in combination. Cells were also treated with 0.1% DMSO a control. Whole proteins were extracted and probes for BCL-2. β-actin was used as a loading control. Representative blots for the three experiments are shown.
In general terms: In western blotting, separated proteins are transferred to a membrane and probed.

Another series has as its system MCF-7 cells. Put plainly: Cell viability by neutral red assay, MCF-7. The procedure:
(§1) Cells were seeded in 24 wells plates at a density of 10^4 cells per well and allowed to adhere for 24 hours. […] The drug was renewed every 2 days. Cell viability was then determined by neutral red assay, measuring absorbance at 550 nm.
(§2) After 6 days treatment, cells were seeded into 24 well plates at a density of 1×10^4 cells/wells. After 24 h, cells were treated with reagents or vehicle for up to six days. At the end of the incubation period, medium was removed and cells were incubated with neutral red solution (40 μg/ml in phenol red and serum free DMEM) for 2 h at 37° C. After removal of the neutral red solution, wells were rinsed once with 1 ml 4% formal saline containing 0.5% CaCl2. Plates were inverted on paper towel to drain and 200 μl of elution fluid (1% acetic acid in 50% ethanol) was added. Following incubation at room temperature for 30 min with gentle shaking, absorbance at 550 nm was determined

In series [2] the test system is MDA-MB-231 cells. In words: Cell growth by Sulphorhodamine B (SRB) assay, MDA-MB-231. The procedure: Cells were seeded in 24 wells plates at a density of 10^4 cells per well and allowed to adhere for 24 hours. To determine the combination effects of the drugs, cells were treated with 100 nM 1,25 D3 and 10 nM 1-oxo-2-(2,6-dioxopiperidin-3-yl)-4-aminoisoindoline or 1,3-dioxo-2-(2,6-dioxopiperidin-3-3-yl)-4-aminoisoindoline. Each treatment was carried out for up to 7 days, but renewed every 2 days. Cell growth was then determined by Sulphorhodamine B (SRB) assay, measuring absorbance at 550 nm.
Cells were seeded in 24 wells plates at a density of 10^4 cells per wekk and allowed to adhere for 24 hours. To determine the combination effects of the drugs, cells were treated with 100 nM 1,25 D3 and varying doses of 1-oxo-2-(2,6-dioxopiperidin-3-yl)-4-aminoisoindoline or 1,3-dioxo-2-(2,6-dioxopiperidin-3-yl)-4-aminoisoindoline. Each treatment was carried out for up to 7 days, but renewed every 2 days. Cell growth was then determined by Sulphorhodamine B (SRB) assay, measuring absorbance at 550 nm.
After 6 days treatment, cells were seeded in 24 well plates at a density of 1×10^4 cells/well. After 24 h cells were treated with reagents or vehicle for up to six days. Cells were treated for up to 6 days with log doses of Thalidomide (0.1 μM up to 100 μM), pomalidomide and lenalidomide (0 μM up to 10 μM). At the end of each experiment, cells were fixed to the bottom of the well by addition of ice-cold 50% w/v trichloroacetic acid (TCA) to give a final concentration of 10% TCA. Plates were incubated at 4° C. for 30 minutes and then washed with distilled water. Plates were allowed to air-dry at room temperature before staining with 0.4% w/v SRB in 1% v/v acetic acid and incubated for 15 minutes on a shaker. The plates were then extensively washed with 1% acetic acid to remove unbound dye and were again allowed to air-dry at room temperature. Incorporated dye was solubilised with 200 μl […] Tris base. 100 μl aliquots were transferred to a 96 well plate and absorbance at 550 nm was determined
Background: In SRB staining, fixed cells bind dye roughly in proportion to their protein.

Series [3] deals with MDA-MB-231 cells. In words: Cell viability by neutral red assay, MDA-MB-231. The conditions noted are these: for effect on cell viability: up to 6 days. On the procedure:
as §1, §2
(§3) To accomplish this, cells were treated for up to 6 days with different concentrations of a BCL-2 inhibitor, ABT-263 ([…]). Non-treated cells were used as a control. After 6 days of treatment, cell viability was measured by neutral red assay (FIG. 16). In the three cell lines, BCL-2 inhibition leads to cell death. The IC50 is almost equivalent in all cell lines (1 μM+/−0.2 μM).
(§4) More particularly, FIG. 16 illustrates the effects of BCL-2 inhibition on MCF-7VD^R and HBL-100 viability. MDA-MB-231, MCF-7/VD^R and HBL-100 cells were treated for up to 6 days with different concentrations of ABT-263 (0.2 up to 20 μM). Non-treated cells were used as a control. After 6 days of treatment, cell viability was measured by neutral red assay. Results are mean of three independent experiments (each made in quadruplicate).

The test system of series [4] is HBL-100 cells. In words: Cell viability by neutral red assay, HBL-100. The note with it: up to 6 days. The procedure: as §2
In order to validate the previous results obtained in MDA-MB-231 cells, two other vitamin D resistant cell lines MCF-7/VD^R and HBL-100 cells, were investigated. First the effect of lenalidomide on these cells lines were investigated. To this end, cells were treated for up to 6 days with different concentrations of lenalidomide (0 μM up to 10 μM). Cell viability was measured by neutal red dye assay (FIG. 13).
More particularly, FIG. 13 illustrates the effects of lenalidomide treatment on MCF-7/VDR and HBL-100 viability. MCF-7/VDR and HBL-100 cells were treated for up to 6 days with different concentrations of lenalidomide (0 μM up to 10 μM). Cell viability was measured by neutral red dye assay. Results are mean of three independent experiments (each made in quadruplicate).
Cell viability was measured by neutral red dye assay (FIG. 14).
More particularly, FIG. 14 illustrates the effects of lenalidomide/1, 25-D3 co-treatment on MCF-7/VDR and HBL-100 viability. MCF-7/VDR and HBL-100 cells were treated for up to 6 days with different concentrations of lenalidomide (0.01 μM up to 1 μM) alone or in combination with different concentrations of 1, 25-D3 (0 for up to 1000 nM). Cell viability was measured by neutral red dye assay. Results are mean of three independent experiments (each made in quadruplicate).
as §3, §4

A further series has as its system MCF-12A cells. Put plainly: Cell viability by neutral red assay, MCF-12A. The procedure:
as §1, §2

Where [5] appears, read: single agent, up to 6 days, Thalidomide 0.01-100 μM, CC-4047 and lenalidomide 0.001-10 μM, FIG. 6A.
Setting [6] is: lenalidomide 0.01-1 μM alone or in combination with 1,25-D3 0-1000 nM, FIG. 14, p>0.05.
[7] abbreviates: 100 nM 1,25-D3 alone, up to 6 days, FIG. 7A.
Setting [8] is: 1,25 D3 0-100 nM, 7 days, FIG. 1.

As usually defined, the inhibition is the percentage by which the read-out fell short of the control. For orientation: inhibition of growth means the drop in the measured response relative to a control, in per cent. As to `Nc1cccc2c1CN(C1CCC(=O)NC1=O)C2=O` (stereo not drawn) [Lenalidomide, 1-oxo-2-(2,6-dioxopiperidin-3-yl)-4-aminoisoindoline], in the series on HBL-100 cells [1], the “effects on BCL-2 expression” value is reported as “no effects”. Besides, the “effect on cell viability” value is “do not Affect” in the series with MCF-7 cells (setting [5]); “do not Affect” in the series on MDA-MB-231 cells [3] (single agent, Thalidomide 0.01-100 μM, CC-4047 and lenalidomide 0.001-10 μM, FIG. 6A); “do not Affect” in the series with MCF-12A cells (setting [5]). Besides, the inhibition at 10 µM in the series with MDA-MB-231 cells [2] (Homo sapiens, MDA-MB-231, 144 h, single agent, 10 μM lenalidomide (highest dose), up to 6 days) was 28%. In the series with MDA-MB-231 cells [2] (in the presence of 100 nM 1,25 D3, up to 7 days, FIG. 3), the “minimal concentration giving statistically significant inhibition of growth” value was determined as 1 µM. For the same molecule, the inhibition of growth in the series with MDA-MB-231 cells [2] (single agent, 10 μM lenalidomide (highest dose), up to 6 days) stood at 20%. In addition, the differences in viability result in the series on HBL-100 cells [4] (lenalidomide 0 μM up to 10 μM, FIG. 13, p>0.05) was “No significant differences”; in the series with HBL-100 cells [4] (setting [6]), “No significant differences”.
Turning to `C=C1/C(=C\C=C2/CCC[C@]3(C)[C@@H]([C@H](C)CCCC(C)(C)O)CC[C@@H]23)C[C@@H](O)C[C@@H]1O` [1,25-D3, 1α,25-dihydroxyvitamin D3], in the series on HBL-100 cells [1], the “effects on BCL-2 expression” value is reported as “no effects”. Further, the inhibition of viability was 40% in the series on MCF-7 cells (setting [7]) and 35% with MCF-12A cells (setting [7]). Besides, the “sensitivity of cell viability to vitamin D agent treatment” value in the series on MCF-7 cells (setting [8]) is recorded as “showed sensitivity”; in the series on MDA-MB-231 cells [3] (setting [8]), “resistant”; in the series with MCF-12A cells (setting [8]), “showed sensitivity”. Moreover, in the series on MDA-MB-231 cells [2] (100 nM 1,25-D3 or 1 μM IMiD alone, up to 6 days), the “effect on cell growth” value is given as “no effect”. The “effect on cell viability” value in the series with MDA-MB-231 cells [3] (100 nM 1,25-D3 or 1 μM IMiD alone) was “no effect”. Moreover, the differences in viability entry in the series on HBL-100 cells [4] (setting [6]) was “No significant differences”.
